In patent US20220306647A1, “NOVEL INDOLE-2-CARBOXAMIDES ACTIVE AGAINST THE HEPATITUS B VIRUS (HBV)” (AICURIS GMBH & CO. KG, priority 2019, published 2022):
pIC50: −log10 of the molar value.

Target: T1, HBV core protein (C-terminal truncated core protein, 149 amino acids of the N-terminal assembly domain, BODIPY-FL labelled) (UniProt P03146)
T1 construct: fused on or other part: A single cysteine added after residue 149, at position 150; It carries the BODIPY-FL maleimide label
Test: Biochemical capsid assembly assay (fluorescence quenching)
Conditions: assembly started with NaCl, fluorescence read after 6 min, read-out: Assembly activity
Protocol: The screening for assembly effector activity was done based on a fluorescence quenching assay published by Zlotnick et al. (2007). The C-terminal truncated core protein containing 149 amino acids of the N-terminal assembly domain fused to a unique cysteine residue at position 150 and was expressed in E. coli using the pET expression system (Merck Chemicals, Darmstadt). Purification of core dimer protein was performed using a sequence of size exclusion chromatography steps. In brief, the cell pellet from 1 L BL21 (DE3) Rosetta2 culture expressing the coding sequence of core protein cloned NdeI/XhoI into expression plasmid pET21b was treated for 1 h on ice with a native lysis buffer (Qproteome Bacterial Protein Prep Kit; Qiagen, Hilden). After a centrifugation step the supernatant was precipitated during 2 h stirring on ice with 0.23 g/ml of solid ammonium sulfate. Following further centrifugation the resulting pellet was resolved in buffer A (100 mM Tris, pH 7.5; 100 mM NaCl; 2 mM DTT) and was subsequently loaded onto a buffer A equilibrated CaptoCore 700 column (GE HealthCare, Frankfurt). The column flow through containing the assembled HBV capsid was dialyzed against buffer N (50 mM NaHCO3 pH 9.6; 5 mM DTT) before urea was added to a final concentration of 3M to dissociate the capsid into core dimers for 1.5 h on ice. The protein solution was then loaded onto a 1L Sephacryl S300 column. After elution with buffer N core dimer containing fractions were identified by SDS-PAGE and subsequently pooled and dialyzed against 50 mM HEPES pH 7.5; 5 mM DTT. To improve the assembly capacity of the purified core dimers a second round of assembly and disassembly starting with the addition of 5 M NaCl and including the size exclusion chromatography steps described above was performed. From the last chromatography step core dimer containing fractions were pooled and stored in aliquots at concentrations between 1.5 to 2.0 mg/ml at −80° C.
Immediately before labelling the core protein was reduced by adding freshly prepared DTT in a final concentration of 20 mM. After 40 min incubation on ice storage buffer and DTT was removed using a Sephadex G-25 column (GE HealthCare, Frankfurt) and 50 mM HEPES, pH 7.5. For labelling 1.6 mg/ml core protein was incubated at 4° C. and darkness overnight with BODIPY-FL maleimide (Invitrogen, Karlsruhe) in a final concentration of 1 mM. After labelling the free dye was removed by an additional desalting step using a Sephadex G-25 column. Labelled core dimers were stored in aliquots at 4° C. In the dimeric state the fluorescence signal of the labelled core protein is high and is quenched during the assembly of the core dimers to high molecular capsid structures. The screening assay was performed in black 384 well microtiter plates in a total assay volume of 10 μl using 50 mM HEPES pH 7.5 and 1.0 to 2.0 μM labelled core protein. Each screening compound was added in 8 different concentrations using a 0.5 log-unit serial dilution starting at a final concentration of 100 μM, 31.6 μM or 10 μM, In any case the DMSO concentration over the entire microtiter plate was 0.5%. The assembly reaction was started by the injection of NaCl to a final concentration of […] which induces the assembly process to approximately 25% of the maximal quenched signal. 6 min after starting the reaction the fluorescence signal was measured using a Clariostar plate reader (BMG Labtech, Ortenberg) with an excitation of 477 nm and an emission of 525 nm. As 100% and 0% assembly control HEPES buffer containing 2.5 M and 0 M NaCl was used. Experiments were performed thrice in triplicates. EC50 values were calculated by non-linear regression analysis using the Graph Pad Prism 6 software (GraphPad Software, La Jolla, USA).

T1 sequence (P03146 whole entry, the tested form may be a part): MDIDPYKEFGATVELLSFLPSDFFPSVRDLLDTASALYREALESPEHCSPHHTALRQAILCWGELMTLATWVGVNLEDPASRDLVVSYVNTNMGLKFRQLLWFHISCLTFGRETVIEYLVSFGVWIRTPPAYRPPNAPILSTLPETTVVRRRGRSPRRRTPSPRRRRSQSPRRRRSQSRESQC

| Compound | pIC50 |
| --- | --- |
| O=C(O)c1cnc(C2(NC(=O)c3cnn4c3CN(C(=O)c3cc5ccccc5[nH]3)CC4)CC2)nc1 [Example 20, 2-{1-[5-(1H-indole-2-carbonyl)-4H,5H,6H,7H-pyrazolo[1,5-a]pyrazine-3-amido]cyclopropyl}pyrimidine-5-carboxylic acid] | > 5.30 |
| CN1CCCn2nc3c(c2C1=O)CN(C(=O)c1cc2ccccc2[nH]1)CC3 [Example 139, 4-(1H-indole-2-carbonyl)-13-methyl-4,8,9,13-tetraazatricyclo[7.5.0.0^2,7]tetradeca-1,7-dien-14-one] | > 5.30 |
| CN(C(=O)c1cnn2c1CN(C(=O)c1cc3ccccc3[nH]1)CC2)C1(COc2ccc(C(=O)O)cc2Cl)CC1 [Example 101, 3-chloro-4-({1-[N-methyl-5-(1H-indole-2-carbonyl)-4H,5H,6H,7H-pyrazolo[1,5-a]pyrazine-3-amido]cyclopropyl}methoxy)benzoic acid] | > 5.30 |
| CN(C(=O)c1cnn2c1CN(C(=O)c1cc3c(F)c(F)ccc3[nH]1)CC2)C1(c2ncc(C(=O)O)cn2)CC1 [Example 58, 2-{1-[N-methyl-5-(4,5-difluoro-1H-indole-2-carbonyl)-4H,5H,6H,7H-pyrazolo[1,5-a]pyrazine-3-amido]cyclopropyl}pyrimidine-5-carboxylic acid] | > 5.30 |
| O=C(O)c1ccc(C2(NC(=O)c3cnn4c3CN(C(=O)c3cc5ccccc5[nH]3)CC4)CC2)cc1 [Example 137, 4-{1-[5-(1H-indole-2-carbonyl)-4H,5H,6H,7H-pyrazolo[1,5-a]pyrazine-3-amido]cyclopropyl}benzoic acid] | > 5.30 |
| O=C(NC1(COC(F)F)CC1)c1onc2c1CN(C(=O)c1cc3cc(F)c(F)cc3[nH]1)CC2 [Example 141, 5-(5,6-difluoro-1H-indole-2-carbonyl)-N-{1-[(difluoromethoxy)methyl]cyclopropyl}-4H,5H,6H,7H-[1,2]oxazolo[4,3-c]pyridine-3-carboxamide] | > 5.30 |
| O=C(O)c1cnc(C2(NC(=O)c3cnn4c3CN(C(=O)c3cc5ccccc5[nH]3)CC4)CC2)nc1 [Example 29, 2-{1-[5-(1H-indole-2-carbonyl)-4H,5H,6H,7H-pyrazolo[1,5-a]pyrazine-3-amido]cyclopropyl}pyrimidine-5-carboxylic acid] | > 4.00 |
| O=C(NC1(COC(F)F)CC1)c1onc2c1CN(C(=O)c1cc3c(F)c(F)ccc3[nH]1)CC2 [Example 143, 5-(4,5-difluoro-1H-indole-2-carbonyl)-N-{1-[(difluoromethoxy)methyl]cyclopropyl}-4H,5H,6H,7H-[1,2]oxazolo[4,3-c]pyridine-3-carboxamide] | > 5.30 |
| CC1CCn2nc3c(c2C(=O)N1C)CN(C(=O)c1cc2ccccc2[nH]1)CC3 (stereo not shown) [Example 145, 4-(1H-indole-2-carbonyl)-12,13-dimethyl-4,8,9,13-tetraazatricyclo[7.5.0.0^2,7]tetradeca-1,7-dien-14-one] | > 5.30 |
| CN(C(=O)c1cnn2c1CN(C(=O)c1cc3ccccc3[nH]1)CC2)C1(c2nccc(C(=O)O)n2)CC1 [Example 36, 2-{1-[N-methyl-5-(1H-indole-2-carbonyl)-4H,5H,6H,7H-pyrazolo[1,5-a]pyrazine-3-amido]cyclopropyl}pyrimidine-4-carboxylic acid] | > 5.30 |
| O=C(c1cc2ccccc2[nH]1)N1CCc2nn3c(c2C1)C(=O)N(CCO)C1(CC1)C3 [Example 140, 4′-(2-hydroxyethyl)-12′-(1H-indole-2-carbonyl)-4′,7′,8′,12′-tetraazaspiro[cyclopropane-1,5′-tricyclo[7.4.0.0^2,7]tridecane]-1′,8′-dien-3′-one] | > 5.30 |
| CN(C(=O)c1[nH]nc2c1CN(C(=O)c1cc3c(Cl)cccc3[nH]1)CC2)C1(c2ncc(C(=O)O)cn2)CC1 [Example 70, 2-{1-[N-methyl-5-(4-chloro-1H-indole-2-carbonyl)-2H,4H,5H,6H,7H-pyrazolo[4,3-c]pyridine-3-amido]cyclopropyl}pyrimidine-5-carboxylic acid] | > 5.30 |
| O=C(NC1(COC(F)F)CC1)c1onc2c1CN(C(=O)c1cc3cc(F)c(Cl)cc3[nH]1)CC2 [Example 144, 5-(6-chloro-5-fluoro-1H-indole-2-carbonyl)-N-{1-[(difluoromethoxy)methyl]cyclopropyl}-4H,5H,6H,7H-[1,2]oxazolo[4,3-c]pyridine-3-carboxamide] | > 5.30 |
| O=C(c1cc2cc(F)c(Cl)cc2[nH]1)N1CCc2nn3c(c2C1)C(=O)N(CCO)C1(CC3)CC1 [Example 122, 4′-(6-chloro-5-fluoro-1H-indole-2-carbonyl)-13′-(2-hydroxyethyl)-4′,8′,9′,13′-tetraazaspiro[cyclopropane-1,12′-tricyclo[7.5.0.0^2,7]tetradecane]-1′,7′-dien-14′-one] | > 5.30 |
| O=C(c1cc2ccccc2[nH]1)N1CCc2nn3c(c2C1)C(=O)N(CC(F)(F)F)C1(CC3)CC1 [Example 148, 4′-(1H-indole-2-carbonyl)-13′-(2,2,2-trifluoroethyl)-4′,8′,9′,13′-tetraazaspiro[cyclopropane-1,12′-tricyclo[7.5.0.0^2,7]tetradecane]-1′,7′-dien-14′-one] | > 5.30 |
| O=C(c1cc2c(F)c(F)ccc2[nH]1)N1CCc2nn3c(c2C1)C(=O)N(CCO)C1(CC3)CC1 [Example 120, 4′-(4,5-difluoro-1H-indole-2-carbonyl)-13′-(2-hydroxyethyl)-4′, 8′,9′,13′-tetraazaspiro[cyclopropane-1,12′-tricyclo[7.5.0.0^2,7]tetradecane]-1′,7′-dien-14′-one] | > 5.30 |
| CN1CCN(CCN2C(=O)c3c4c(nn3CCC23CC3)CCN(C(=O)c2cc3ccccc3[nH]2)C4)CC1 [Example 125, 4′-(1H-indole-2-carbonyl)-13′-[2-(4-methylpiperazin-1-yl)ethyl]-4′,8′,9′,13′-tetraazaspiro[cyclopropane-1,12′-tricyclo[7.5.0.0^2,7]tetradecane]-1′,7′-dien-14′-one] | > 5.30 |
| O=C(c1cc2ccccc2[nH]1)N1CCc2nn3c(c2C1)C(=O)N(CCN1CCOCC1)C1(CC3)CC1 [Example 134, 4′-(1H-indole-2-carbonyl)-13′-[2-(morpholin-4-yl)ethyl]-4′,8′,9′,13′-tetraazaspiro[cyclopropane-1,12′-tricyclo[7.5.0.0^2,7]tetradecane]-1′,7′-dien-14′-one] | > 5.30 |
| O=C(c1cc2ccccc2[nH]1)N1CCc2noc(C(=O)N3CCC(O)CC34CC4)c2C1 (stereo not shown) [Example 102, 4-[5-(1H-indole-2-carbonyl)-4H,5H,6H,7H-[1,2]oxazolo[4,3-c]pyridine-3-carbonyl]-4-azaspiro[2.5]octan-7-ol] | > 5.30 |
| CN(C(=O)c1[nH]nc2c1CN(C(=O)c1cc3c(F)c(F)ccc3[nH]1)CC2)C1(c2ccc(C(=O)O)cc2)CC1 [Example 65, 4-{1-[N-methyl-5-(4,5-difluoro-1H-indole-2-carbonyl)-2H,4H,5H,6H,7H-pyrazolo[4,3-c]pyridine-3-amido]cyclopropyl}benzoic acid] | > 5.30 |
| C[C@@H](NC(=O)c1noc2c1CN(C(=O)c1cc3c(F)cc(F)cc3[nH]1)CC2)C(F)(F)F [Example 112, 5-(4,6-difluoro-1H-indole-2-carbonyl)-N-[(2R)-1,1,1-trifluoropropan-2-yl]-4H,5H,6H,7H-[1,2]oxazolo[4,5-c]pyridine-3-carboxamide] | > 5.30 |
| O=C(NC1(COC(F)F)CC1)c1onc2c1CN(C(=O)c1cc3c(Cl)cccc3[nH]1)CC2 [Example 133, 5-(4-chloro-1H-indole-2-carbonyl)-N-{1-[(difluoromethoxy)methyl]cyclopropyl}-4H,5H,6H,7H-[1,2]oxazolo[4,3-c]pyridine-3-carboxamide] | > 5.30 |
